These results are taken from paper PMC4703981, “Autophosphorylation at Thr279 of Entamoeba histolytica atypical kinase EhAK1 is required for activity and regulation of erythrophagocytosis” (Scientific Reports, 2016).

SMILES strings stand for the structures.

The target of the experiment is T1, EhAK1 (Entamoeba histolytica, UniProt C4M9G9).
T1 construct: gene EHI_105830
Conditions: maximal quench on ATP titration, no affinity constant.

T1 sequence (C4M9G9 entry or part of it): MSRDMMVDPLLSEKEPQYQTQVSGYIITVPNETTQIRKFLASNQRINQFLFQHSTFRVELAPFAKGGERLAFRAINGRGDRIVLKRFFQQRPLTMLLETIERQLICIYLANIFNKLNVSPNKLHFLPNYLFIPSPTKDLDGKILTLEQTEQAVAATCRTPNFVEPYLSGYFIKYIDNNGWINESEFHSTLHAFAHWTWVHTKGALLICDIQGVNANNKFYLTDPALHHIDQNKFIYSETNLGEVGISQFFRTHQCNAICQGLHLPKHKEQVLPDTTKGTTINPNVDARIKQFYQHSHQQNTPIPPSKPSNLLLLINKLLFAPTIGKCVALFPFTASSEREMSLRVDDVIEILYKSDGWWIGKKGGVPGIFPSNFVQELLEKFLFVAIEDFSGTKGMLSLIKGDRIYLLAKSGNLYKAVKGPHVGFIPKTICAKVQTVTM

`Nc1ncnc2c1ncn2[C@@H]1O[C@H](COP(=O)(O)OP(=O)(O)OP(=O)(O)O)[C@@H](O)[C@H]1O` [ATP]: the “% decrease in Trp fluorescence” value turned out to be 76%.
